According to PubChem BioAssay (NCI):
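GI50 is the concentration that inhibits growth by half. TGI is the concentration that stops growth completely.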

Legend:
Assay in all cases: inhibition of tumour cell growth, NCI panel, 384-well format
[1] = system: SNB-75 CNS
[2] = system: CAKI-1 renal
[3] = system: T-47D breast
[4] = system: SK-MEL-28 melanoma
[5] = system: DU-145 prostate
[6] = system: MALME-3M melanoma
[7] = system: OVCAR-3 ovarian
[8] = system: HOP-62 NSCLC
[9] = system: U251 glioblastoma
[10] = system: SK-MEL-5 melanoma
[11] = system: IGROV1 ovarian
[12] = system: HOP-92 NSCLC
[13] = system: UACC-62 melanoma
[14] = system: HS 578T breast
[15] = system: KM12 colon
[16] = system: SNB-19 CNS
[17] = system: RPMI-8226 leukemia
[18] = system: NCI/ADR-RES ovarian
[19] = system: OVCAR-4 ovarian
[20] = system: MDA-MB-435 melanoma
[21] = system: SF-295 CNS
[22] = system: SF-539 CNS
[23] = system: OVCAR-5 ovarian
[24] = system: MCF7 breast
[25] = system: HCT-116 colon
[26] = system: HCT-15 colon
[27] = system: NCI-H522 lung
[28] = system: SW-620 colon
[29] = system: UO-31 renal
[30] = system: RXF 393 renal
[31] = system: SN12C renal
[32] = system: A498 renal
[33] = system: PC-3 prostate
[34] = system: M14 melanoma
[35] = system: HL-60(TB) leukemia
[36] = system: COLO 205 colon
[37] = system: LOX IMVI melanoma
[38] = system: BT-549 breast
[39] = system: CCRF-CEM leukemia
[40] = system: NCI-H322M lung
[41] = system: A549 NSCLC
[42] = system: HCC-2998 colon
[43] = system: HT29 colon
[44] = system: K-562 leukemia
[45] = system: MDA-MB-231 breast
[46] = system: MOLT-4 leukemia
[47] = system: MDA-MB-468 breast
[48] = system: SF-268 CNS
[49] = system: EKVX NSCLC
[50] = system: ACHN renal
[51] = system: 786-0 renal
[52] = system: TK-10 renal
[53] = system: OVCAR-8 ovarian
[54] = system: SK-OV-3 ovarian
[55] = system: NCI-H23 lung
[56] = system: NCI-H460 NSCLC
[57] = system: UACC-257 melanoma
[58] = system: NCI-H226 lung
[59] = system: SR leukemia

SMILES: Cc1ccc(-n2nc(C(C)(C)C)cc2NC(=O)NCc2cc(F)ccc2Oc2ccc3c(cnn3CCO)c2)cc1
- GI50 [1]: 12200 nM
- TGI [1]: 89000 nM
- GI50 [2]: 3070 nM
- TGI [2]: > 100000 nM
- GI50 [3]: 1820 nM
- TGI [3]: 8640 nM
- GI50 [4]: 1260 nM
- TGI [4]: 4320 nM
- GI50 [5]: 15000 nM
- TGI [5]: > 100000 nM
- GI50 [6]: 357 nM
- TGI [6]: 1490 nM
- GI50 [7]: 8850 nM
- TGI [7]: 24300 nM
- GI50 [8]: 4670 nM
- TGI [8]: 27100 nM
- GI50 [9]: 10300 nM
- TGI [9]: > 100000 nM
- GI50 [10]: 1060 nM
- TGI [10]: 6630 nM
- GI50 [11]: 2390 nM
- TGI [11]: 18000 nM
- GI50 [12]: 4100 nM
- TGI [12]: 29800 nM
- GI50 [13]: 665 nM
- TGI [13]: 5740 nM
- GI50 [14]: 2630 nM
- TGI [14]: 15600 nM
- GI50 [15]: 1560 nM
- TGI [15]: 11900 nM
- GI50 [16]: 29100 nM
- TGI [16]: > 100000 nM
- GI50 [17]: 4070 nM
- TGI [17]: 32000 nM
- GI50 [18]: 7830 nM
- TGI [18]: 66400 nM
- GI50 [19]: 12500 nM
- TGI [19]: 31800 nM
- GI50 [20]: 2740 nM
- TGI [20]: 89200 nM
- GI50 [21]: 18000 nM
- TGI [21]: > 100000 nM
- GI50 [22]: 2720 nM
- TGI [22]: 28600 nM
- GI50 [23]: 4520 nM
- TGI [23]: 50900 nM
- GI50 [24]: 2700 nM
- TGI [24]: 14300 nM
- GI50 [25]: 3130 nM
- TGI [25]: 16000 nM
- GI50 [26]: 5140 nM
- TGI [26]: > 100000 nM
- GI50 [27]: 3910 nM
- TGI [27]: 17100 nM
- GI50 [28]: 10500 nM
- TGI [28]: > 100000 nM
- GI50 [29]: 3160 nM
- TGI [29]: 20800 nM
- GI50 [30]: 3380 nM
- TGI [30]: 14500 nM
- GI50 [31]: 3940 nM
- TGI [31]: 33000 nM
- GI50 [32]: 8980 nM
- TGI [32]: 71800 nM
- GI50 [33]: 6720 nM
- TGI [33]: 53100 nM
- GI50 [34]: 427 nM
- TGI [34]: 3110 nM
- GI50 [35]: 1670 nM
- TGI [35]: 4480 nM
- GI50 [36]: 1260 nM
- TGI [36]: 12300 nM
- GI50 [37]: 1620 nM
- TGI [37]: 4410 nM
- GI50 [38]: 4900 nM
- TGI [38]: 27200 nM
- GI50 [39]: 4510 nM
- TGI [39]: 16700 nM
- GI50 [40]: 6360 nM
- TGI [40]: > 100000 nM
- GI50 [41]: 7810 nM
- TGI [41]: > 100000 nM
- GI50 [42]: 3470 nM
- TGI [42]: 13200 nM
- GI50 [43]: 1860 nM
- TGI [43]: 13800 nM
- TGI [44]: 25.8 nM
- GI50 [45]: 3170 nM
- TGI [45]: > 100000 nM
- GI50 [46]: 1900 nM
- TGI [46]: 5020 nM
- GI50 [47]: 4560 nM
- TGI [47]: 15000 nM
- GI50 [48]: 45.5 nM
- TGI [48]: 1620 nM
- GI50 [49]: 4580 nM
- TGI [49]: 27700 nM
- GI50 [50]: 3280 nM
- TGI [50]: 62900 nM
- GI50 [51]: 4930 nM
- TGI [51]: > 100000 nM
- GI50 [52]: 13900 nM
- TGI [52]: 87400 nM
- GI50 [53]: 13000 nM
- TGI [53]: > 100000 nM
- GI50 [54]: 9150 nM
- TGI [54]: > 100000 nM
- GI50 [55]: 1780 nM
- TGI [55]: 6080 nM
- GI50 [56]: 6400 nM
- TGI [56]: 20600 nM
- GI50 [57]: 1870 nM
- TGI [57]: 5700 nM
- GI50 [58]: 440 nM
- TGI [58]: 13300 nM

SMILES: COc1ccc(F)c(F)c1C(=O)c1cnc(NC2CCN(S(C)(=O)=O)CC2)nc1N
- GI50 [1]: 86.4 nM
- TGI [1]: 1730 nM
- GI50 [3]: 306 nM
- TGI [3]: > 100000 nM
- GI50 [4]: 161 nM
- TGI [4]: 1580 nM
- GI50 [5]: 211 nM
- TGI [5]: 977 nM
- GI50 [6]: 379 nM
- TGI [6]: 2000 nM
- GI50 [7]: 305 nM
- TGI [7]: 1450 nM
- GI50 [8]: 135 nM
- TGI [8]: 466 nM
- GI50 [59]: 15.7 nM
- TGI [59]: 39 nM
- GI50 [9]: 278 nM
- TGI [9]: > 100000 nM
- GI50 [10]: 82 nM
- TGI [10]: 609 nM
- GI50 [11]: 222 nM
- TGI [11]: > 100000 nM
- GI50 [12]: 310 nM
- TGI [12]: > 100000 nM
- GI50 [13]: 138 nM
- TGI [13]: 453 nM
- GI50 [14]: 206 nM
- TGI [14]: 492 nM
- GI50 [15]: 108 nM
- TGI [15]: 456 nM
- GI50 [16]: 348 nM
- TGI [16]: > 100000 nM
- GI50 [17]: 20.9 nM
- TGI [17]: 124 nM
- GI50 [20]: 251 nM
- TGI [20]: 1600 nM
- GI50 [22]: 137 nM
- TGI [22]: 501 nM
- GI50 [26]: 187 nM
- TGI [26]: > 100000 nM
- GI50 [30]: 159 nM
- TGI [30]: 345 nM
- GI50 [31]: 139 nM
- TGI [31]: 681 nM
- GI50 [33]: 284 nM
- TGI [33]: 2130 nM
- GI50 [34]: 346 nM
- TGI [34]: 1640 nM
- GI50 [35]: 15.8 nM
- TGI [35]: 125 nM
- GI50 [38]: 44.1 nM
- TGI [38]: 434 nM
- GI50 [39]: 72 nM
- TGI [39]: 234 nM
- GI50 [40]: 215 nM
- TGI [40]: 602 nM
- GI50 [41]: 169 nM
- TGI [41]: > 100000 nM
- GI50 [42]: 289 nM
- TGI [42]: 1910 nM
- GI50 [43]: 206 nM
- TGI [43]: 2050 nM
- GI50 [45]: 201 nM
- TGI [45]: 3700 nM
- GI50 [46]: 91.2 nM
- TGI [46]: 396 nM
- GI50 [48]: 129 nM
- TGI [48]: 361 nM
- GI50 [49]: 424 nM
- TGI [49]: 3160 nM
- GI50 [52]: 304 nM
- TGI [52]: > 100000 nM
- GI50 [53]: 144 nM
- TGI [53]: 917 nM
- GI50 [54]: 1030 nM
- TGI [54]: > 100000 nM
- GI50 [55]: 140 nM
- TGI [55]: 774 nM
- GI50 [56]: 30.2 nM
- TGI [56]: 162 nM
- GI50 [57]: 1030 nM
- TGI [57]: 2620 nM
- GI50 [58]: 164 nM
- TGI [58]: 753 nM
